Structures can show the parent of a compound that is named as a salt.
target: T1, Adrenergic β2 (Homo sapiens, UniProt P07550); assay: Adrenergic β2 mediated cAMP production in H292 cells (AlphaScreen cAMP detection); type: cell-based; design: key to β2 Int Act: fraction of formoterol maximum activity (formoterol = 1); details: Intrinsic Activity as a fraction relative to the maximum activity determined for formoterol
T1 construct: Adherent H292 cells were removed from tissue culture flasks; endogenous in cells; host or cells: H292 cells
Experimental: Adrenergic β2 Mediated cAMP Production
H292 cells were grown in 225 cm2 flasks incubator at 37° C., 5% CO2 in RPMI medium containing, 10% (v/v) FBS (foetal bovine serum) and 2 mM L-glutamine.
Adherent H292 cells were removed from tissue culture flasks by treatment with Accutase™ cell detachment solution for 15 minutes. Flasks were incubated for 15 minutes in a humidified incubator at 37° C., 5% CO2. Detached cells were re-suspended in RPMI media (containing 10% (v/v) FBS and 2 mM L-glutamine) at 1×10^6 cells per mL. 10000 cells in 100 μL were added to each well of a tissue-culture-treated 96-well plate and the cells incubated overnight in a humidified incubator at 37° C., 5% CO2. The culture media was removed and cells were washed twice with 100 μL assay buffer and replaced with 50 μL assay buffer (HBSS solution containing 10 mM HEPES pH7.4 and 5 mM glucose). Cells were rested at room temperature for 20 minutes after which time 25 μL of rolipram (1.2 mM made up in assay buffer containing 2.4% (v/v) dimethylsulphoxide) was added. Cells were incubated with rolipram for 10 minutes after which time test compounds were added and the cells were incubated for 60 minutes at room temperature. The final rolipram concentration in the assay was 300 μM and final vehicle concentration was 1.6% (v/v) dimethylsulphoxide. The reaction was stopped by removing supernatants, washing once with 100 μL assay buffer and replacing with 50 μL lysis buffer. The cell monolayer was frozen at −80° C. for 30 minutes (or overnight).
AlphaScreen™ cAMP Detection
The concentration of cAMP (cyclic adenosine monophosphate) in the cell lysate was determined using AlphaScreen™ methodology. The frozen cell plate was thawed for 20 minutes on a plate shaker then 10 μL of the cell lysate was transferred to a 96-well white plate. 40 μL of mixed AlphaScreen™ detection beads pre-incubated with biotinylated cAMP, was added to each well and the plate incubated at room temperature for 10 hours in the dark. The AlphaScreen™ signal was measured using an EnVision spectrophotometer (Perkin-Elmer Inc.) with the recommended manufacturer's settings. cAMP concentrations were determined by reference to a calibration curve determined in the same experiment using standard cAMP concentrations. Concentration response curves for agonists were constructed and data was fitted to a four parameter logistic equation to determine both the pEC50 and Intrinsic Activity. Intrinsic Activity was expressed as a fraction relative to the maximum activity determined for formoterol in each experiment.

T1 sequence (P07550 whole entry): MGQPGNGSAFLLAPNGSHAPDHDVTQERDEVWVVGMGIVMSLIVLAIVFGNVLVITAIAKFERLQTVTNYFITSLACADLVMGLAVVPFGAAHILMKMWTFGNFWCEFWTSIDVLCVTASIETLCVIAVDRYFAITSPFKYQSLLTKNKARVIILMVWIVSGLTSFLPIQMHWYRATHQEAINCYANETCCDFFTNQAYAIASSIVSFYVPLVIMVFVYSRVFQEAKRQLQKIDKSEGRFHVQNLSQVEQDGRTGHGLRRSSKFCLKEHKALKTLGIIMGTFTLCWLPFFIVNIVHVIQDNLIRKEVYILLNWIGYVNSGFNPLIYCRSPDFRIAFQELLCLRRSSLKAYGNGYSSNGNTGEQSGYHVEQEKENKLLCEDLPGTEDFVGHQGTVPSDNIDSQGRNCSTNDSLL

| Compound | β2 Int Act |
| --- | --- |
| O=C1COc2c(CCNCCN(C(=O)CCNCCc3ccc(C(=O)O)cc3)C3CCCCC3)ccc(O)c2N1 [Example 43, 4-(2-(3-(Cyclohexyl(2-(2-(5-hydroxy-3-oxo-3,4-dihydro-2H-benzo[b][1,4]oxazin-8-yl)ethylamino)ethyl)amino)-3-oxopropylamino)ethyl)benzoic acid bis(trifluoroacetate)] | 0.97 |
| O=C(CCNCCc1ccc(Cl)cc1)N(CCNCCc1ccc(O)c2[nH]c(=O)ccc12)C1CCCCCC1 [Example 4, 3-(4-Chlorophenethylamino)-N-cycloheptyl-N-(2-(2-(8-hydroxy-2-oxo-1,2-dihydroquinolin-5-yl)ethylamino)ethyl)propanamide bis(trifluoroacetate)] | 0.79 |
| O=C1COc2c(CCNCCN(C(=O)CCNCCc3ccc(Cl)cc3Cl)C3CCCCC3)ccc(O)c2N1 [Example 31, N-Cyclohexyl-3-(2,4-dichlorophenethylamino)-N-(2-(2-(5-hydroxy-3-oxo-3,4-dihydro-2H-benzo[b][1,4]oxazin-8-yl)ethylamino)ethyl)propanamide bis(trifluoroacetate)] | 0.94 |
| O=C1COc2c(CCNCCN(C(=O)CCNCCc3cccc(F)c3F)C3CCCCC3)ccc(O)c2N1 [Example 36, N-Cyclohexyl-3-(2,3-difluorophenethylamino)-N-(2-(2-(5-hydroxy-3-oxo-3,4-dihydro-2H-benzo[b][1,4]oxazin-8-yl)ethylamino)ethyl)propanamide bis(trifluoroacetate)] | 0.91 |
| O=C1COc2c(CCNCCN(C(=O)CCOCCc3cccc(F)c3)C3CCCCC3)ccc(O)c2N1 [Example 74, N-Cyclohexyl-3-(3-fluorophenethoxy)-N-(2-(2-(5-hydroxy-3-oxo-3,4-dihydro-2H-benzo[b][1,4]oxazin-8-yl)ethylamino)ethyl)propanamide trifluoroacetate] | 0.97 |
| CCCC[C@@H](C)N(CCNCCc1ccc(O)c2c1OCC(=O)N2)C(=O)CCNCCc1ccccc1Cl [Example 46, (R)-3-(2-Chlorophenethylamino)-N-(hexan-2-yl)-N-(2-(2-(5-hydroxy-3-oxo-3,4-dihydro-2H-benzo[b][1,4]oxazin-8-yl)ethylamino)ethyl)propanamide bis(trifluoroacetate)] | 0.89 |
| O=C1COc2c(CCNCCN(C(=O)CCNCCc3cc(F)cc(F)c3)C3CCCCCC3)ccc(O)c2N1 [Example 65, N-Cycloheptyl-3-(3,5-difluorophenethylamino)-N-(2-(2-(5-hydroxy-3-oxo-3,4-dihydro-2H-benzo[b][1,4]oxazin-8-yl)ethylamino)ethyl)propanamide bis(trifluoroacetate)] | 0.93 |
| O=C(CCNCCc1cccc(Cl)c1)N(CCNCCc1ccc(O)c2[nH]c(=O)ccc12)C1CCCCCC1 [Example 3, 3-(3-Chlorophenethylamino)-N-cycloheptyl-N-(2-(2-(8-hydroxy-2-oxo-1,2-dihydroquinolin-5-yl)ethylamino)ethyl)propanamide bis(trifluoroacetate)] | 0.82 |
| CCCC[C@@H](C)N(CCNCCc1ccc(O)c2c1OCC(=O)N2)C(=O)CCNCCc1ccc(F)c(Cl)c1 [Example 48, (R)-3-(3-Chloro-4-fluorophenethylamino)-N-(hexan-2-yl)-N-(2-(2-(5-hydroxy-3-oxo-3,4-dihydro-2H-benzo[b][1,4]oxazin-8-yl)ethylamino)ethyl)propanamide bis(trifluoroacetate)] | 0.91 |
| O=C(CCNCCc1cc(F)cc(F)c1)N(CCNCCc1ccc(O)c2[nH]c(=O)ccc12)C1CCCCCC1 [Example 10, N-Cycloheptyl-3-(3,5-difluorophenethylamino)-N-(2-(2-(8-hydroxy-2-oxo-1,2-dihydroquinolin-5-yl)ethylamino)ethyl)propanamide bis(trifluoroacetate)] | 0.85 |

From patent US20120142646A1, “Novel Compounds 621” (priority 2006, published 2012)
